Measurements: PubChem BioAssay (NCI)
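A five-concentration, 48-hour dose response in 96-well plates underlies each endpoint, interpolated linearly between surrounding concentrations. At the GI50, growth is halved. TGI denotes the concentration required for complete inhibition of growth.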

Key:
Experiment in all cases: NCI tumour cell line growth inhibition, 48 h
NCI/ADR-RES ovarian = system: NCI/ADR-RES ovarian
SK-OV-3 ovarian = system: SK-OV-3 ovarian
MALME-3M melanoma = system: MALME-3M melanoma
NCI-H522 lung = system: NCI-H522 lung
HS 578T breast = system: HS 578T breast
HT29 colon = system: HT29 colon
786-0 renal = system: 786-0 renal
T-47D breast = system: T-47D breast
HOP-92 NSCLC = system: HOP-92 NSCLC
SK-MEL-2 melanoma = system: SK-MEL-2 melanoma
MOLT-4 leukemia = system: MOLT-4 leukemia
NCI-H226 lung = system: NCI-H226 lung
ACHN renal = system: ACHN renal
SK-MEL-5 melanoma = system: SK-MEL-5 melanoma
DU-145 prostate = system: DU-145 prostate
TK-10 renal = system: TK-10 renal
SF-268 CNS = system: SF-268 CNS
HCT-116 colon = system: HCT-116 colon
SR leukemia = system: SR leukemia
A498 renal = system: A498 renal
UO-31 renal = system: UO-31 renal
A549 NSCLC = system: A549 NSCLC
SF-539 CNS = system: SF-539 CNS
MDA-MB-231 breast = system: MDA-MB-231 breast
HL-60(TB) leukemia = system: HL-60(TB) leukemia
RXF 393 renal = system: RXF 393 renal
LOX IMVI melanoma = system: LOX IMVI melanoma
COLO 205 colon = system: COLO 205 colon
OVCAR-3 ovarian = system: OVCAR-3 ovarian
HCC-2998 colon = system: HCC-2998 colon
HOP-62 NSCLC = system: HOP-62 NSCLC
SN12C renal = system: SN12C renal
NCI-H460 lung = system: NCI-H460 lung
SNB-19 CNS = system: SNB-19 CNS
RPMI-8226 leukemia = system: RPMI-8226 leukemia
HCT-15 colon = system: HCT-15 colon
PC-3 prostate = system: PC-3 prostate
MCF7 breast = system: MCF7 breast
SF-295 CNS = system: SF-295 CNS
OVCAR-8 ovarian = system: OVCAR-8 ovarian
EKVX NSCLC = system: EKVX NSCLC
CAKI-1 renal = system: CAKI-1 renal
MDA-MB-435 = system: MDA-MB-435
U251 CNS = system: U251 CNS
CCRF-CEM leukemia = system: CCRF-CEM leukemia
KM12 colon = system: KM12 colon
SW-620 colon = system: SW-620 colon
NCI-H23 lung = system: NCI-H23 lung
UACC-257 melanoma = system: UACC-257 melanoma
BT-549 breast = system: BT-549 breast
UACC-62 melanoma = system: UACC-62 melanoma
M14 melanoma = system: M14 melanoma
SNB-75 CNS = system: SNB-75 CNS
OVCAR-5 ovarian = system: OVCAR-5 ovarian
OVCAR-4 ovarian = system: OVCAR-4 ovarian
IGROV1 ovarian = system: IGROV1 ovarian
K-562 leukemia = system: K-562 leukemia
SK-MEL-28 melanoma = system: SK-MEL-28 melanoma

`Cc1ccc(C(=O)NC2CC2)cc1-c1ccc2[nH]ncc2c1` showed a GI50 (NCI/ADR-RES ovarian) of over 25 µM, a TGI (NCI/ADR-RES ovarian) of over 25 µM and a GI50 (SK-OV-3 ovarian) of over 25 µM. The TGI (SK-OV-3 ovarian) was over 25 µM, the GI50 (MALME-3M melanoma) was over 25 µM and the TGI (MALME-3M melanoma) was over 25 µM. It also gave a GI50 (NCI-H522 lung) of over 25 µM, a TGI (NCI-H522 lung) of over 25 µM and a GI50 (HS 578T breast) of over 19.5 µM. The TGI (HS 578T breast) was over 25 µM, the GI50 (HT29 colon) was over 25 µM and the TGI (HT29 colon) was over 25 µM. For the same compound, the GI50 (786-0 renal) was over 25 µM, the TGI (786-0 renal) was over 25 µM and the GI50 (T-47D breast) was over 25 µM. For the same compound, the TGI (T-47D breast) was over 25 µM, the GI50 (HOP-92 NSCLC) was 6.22 µM and the TGI (HOP-92 NSCLC) was over 25 µM. The GI50 (SK-MEL-2 melanoma) was over 25 µM, the TGI (SK-MEL-2 melanoma) was over 25 µM and the GI50 (MOLT-4 leukemia) was over 25 µM. The TGI (MOLT-4 leukemia) was over 25 µM, the GI50 (NCI-H226 lung) was over 25 µM and the TGI (NCI-H226 lung) was over 25 µM. For the same compound, the GI50 (ACHN renal) was over 25 µM, the TGI (ACHN renal) was over 25 µM and the GI50 (SK-MEL-5 melanoma) was over 25 µM. It also gave a TGI (SK-MEL-5 melanoma) of over 25 µM, a GI50 (DU-145 prostate) of over 25 µM and a TGI (DU-145 prostate) of over 25 µM. It also gave a GI50 (TK-10 renal) of over 25 µM, a TGI (TK-10 renal) of over 25 µM and a GI50 (SF-268 CNS) of over 25 µM. It also gave a TGI (SF-268 CNS) of over 25 µM, a GI50 (HCT-116 colon) of over 25 µM and a TGI (HCT-116 colon) of over 25 µM. The GI50 (SR leukemia) was over 25 µM, the TGI (SR leukemia) was over 25 µM and the GI50 (A498 renal) was over 12.7 µM. For the same compound, the TGI (A498 renal) was over 25 µM, the GI50 (UO-31 renal) was over 22.9 µM and the TGI (UO-31 renal) was over 25 µM. The GI50 (A549 NSCLC) was over 25 µM, the TGI (A549 NSCLC) was over 25 µM and the GI50 (SF-539 CNS) was over 25 µM. For the same compound, the TGI (SF-539 CNS) was over 25 µM, the GI50 (MDA-MB-231 breast) was over 25 µM and the TGI (MDA-MB-231 breast) was over 25 µM. The GI50 (HL-60(TB) leukemia) was over 25 µM, the TGI (HL-60(TB) leukemia) was over 25 µM and the GI50 (RXF 393 renal) was over 25 µM. The TGI (RXF 393 renal) was over 25 µM, the GI50 (LOX IMVI melanoma) was over 25 µM and the TGI (LOX IMVI melanoma) was over 25 µM. The GI50 (COLO 205 colon) was over 25 µM, the TGI (COLO 205 colon) was over 25 µM and the GI50 (OVCAR-3 ovarian) was over 25 µM. For the same compound, the TGI (OVCAR-3 ovarian) was over 25 µM, the GI50 (HCC-2998 colon) was over 25 µM and the TGI (HCC-2998 colon) was over 25 µM. The GI50 (HOP-62 NSCLC) was over 25 µM, the TGI (HOP-62 NSCLC) was over 25 µM and the GI50 (SN12C renal) was over 25 µM. The TGI (SN12C renal) was over 25 µM, the GI50 (NCI-H460 lung) was over 25 µM and the TGI (NCI-H460 lung) was over 25 µM. The GI50 (SNB-19 CNS) was over 25 µM, the TGI (SNB-19 CNS) was over 25 µM and the GI50 (RPMI-8226 leukemia) was over 25 µM. For the same compound, the TGI (RPMI-8226 leukemia) was over 25 µM, the GI50 (HCT-15 colon) was over 25 µM and the TGI (HCT-15 colon) was over 25 µM. It also gave a GI50 (PC-3 prostate) of over 25 µM, a TGI (PC-3 prostate) of over 25 µM and a GI50 (MCF7 breast) of over 25 µM. For the same compound, the TGI (MCF7 breast) was over 25 µM, the GI50 (SF-295 CNS) was over 25 µM and the TGI (SF-295 CNS) was over 25 µM. For the same compound, the GI50 (OVCAR-8 ovarian) was over 25 µM, the TGI (OVCAR-8 ovarian) was over 25 µM and the GI50 (EKVX NSCLC) was over 25 µM. The TGI (EKVX NSCLC) was over 25 µM, the GI50 (CAKI-1 renal) was over 25 µM and the TGI (CAKI-1 renal) was over 25 µM. For the same compound, the GI50 (MDA-MB-435) was over 25 µM, the TGI (MDA-MB-435) was over 25 µM and the GI50 (U251 CNS) was over 25 µM. For the same compound, the TGI (U251 CNS) was over 25 µM, the GI50 (CCRF-CEM leukemia) was over 25 µM and the TGI (CCRF-CEM leukemia) was over 25 µM. For the same compound, the GI50 (KM12 colon) was over 25 µM, the TGI (KM12 colon) was over 25 µM and the GI50 (SW-620 colon) was over 25 µM. It also gave a TGI (SW-620 colon) of over 25 µM, a GI50 (NCI-H23 lung) of over 25 µM and a TGI (NCI-H23 lung) of over 25 µM. The GI50 (UACC-257 melanoma) was over 25 µM, the TGI (UACC-257 melanoma) was over 25 µM and the GI50 (BT-549 breast) was over 25 µM. It also gave a TGI (BT-549 breast) of over 25 µM, a GI50 (UACC-62 melanoma) of over 25 µM and a TGI (UACC-62 melanoma) of over 25 µM. The GI50 (M14 melanoma) was over 25 µM, the TGI (M14 melanoma) was over 25 µM and the GI50 (SNB-75 CNS) was over 13 µM. The TGI (SNB-75 CNS) was over 25 µM, the GI50 (OVCAR-5 ovarian) was over 25 µM and the TGI (OVCAR-5 ovarian) was over 25 µM. For the same compound, the GI50 (OVCAR-4 ovarian) was over 25 µM, the TGI (OVCAR-4 ovarian) was over 25 µM and the GI50 (IGROV1 ovarian) was over 25 µM. It also gave a TGI (IGROV1 ovarian) of over 25 µM, a GI50 (K-562 leukemia) of over 22 µM and a TGI (K-562 leukemia) of over 25 µM. The GI50 (SK-MEL-28 melanoma) was over 25 µM and the TGI (SK-MEL-28 melanoma) was over 25 µM.
